Data taken from patent US9023789B2, “Amylin analogs and pharmaceutical compositions thereof” (Novo Nordisk A/S, priority 2012, dated 2015).
Values after ≈ are worked out from the molar mass of the structure shown. Like-named read-outs stand apart in the source and are kept apart here. Numbered stars: 1 amine (or outer) side, 2 acyl side, 3 side chain; on linkers, the order of the positions; unused ones are H or OH. Bridge positions count the residues as written; N and C are the ends. Side chains are listed from the residue outwards. Peptide text beside a SMILES is read from it. * marks the point of attachment. C20 diacid = O=C(O)CCCCCCCCCCCCCCCCCCC(=O)*; γGlu = O=C(O)[C@H](CCC(=O)[*:2])N[*:1]; AEEA = NCCOCCOCC(=O)O

How the values were obtained:
[1] = ASSAY (IV) determination of solubility; type: physicochemical
How it was run: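 Dissolve polypeptide in water ([…] stock); combine 1:1 with each 100 mM buffer (glycylglycine pH 3.0/4.0/5.0; bistrispropane pH 6.0/6.5/7.0/7.5/8.0); hold 18 hours at room temperature; centrifuge; quantify polypeptide by UPLC.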

[2] = molecular target: T1, human calcitonin receptor (Homo sapiens, UniProt P30988); test: ASSAY (VII) binding to the human calcitonin receptor (SPA, 125I-Calcitonin);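 note: cell membranes (35 ng/µL) combined with SPA beads in 40 µL of pH 7.4 Hepes buffer, 384-well format, signal counted on a TopCounter instrument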
T1 construct: expressed in transfected cells
T1 sequence (P30988 25-474): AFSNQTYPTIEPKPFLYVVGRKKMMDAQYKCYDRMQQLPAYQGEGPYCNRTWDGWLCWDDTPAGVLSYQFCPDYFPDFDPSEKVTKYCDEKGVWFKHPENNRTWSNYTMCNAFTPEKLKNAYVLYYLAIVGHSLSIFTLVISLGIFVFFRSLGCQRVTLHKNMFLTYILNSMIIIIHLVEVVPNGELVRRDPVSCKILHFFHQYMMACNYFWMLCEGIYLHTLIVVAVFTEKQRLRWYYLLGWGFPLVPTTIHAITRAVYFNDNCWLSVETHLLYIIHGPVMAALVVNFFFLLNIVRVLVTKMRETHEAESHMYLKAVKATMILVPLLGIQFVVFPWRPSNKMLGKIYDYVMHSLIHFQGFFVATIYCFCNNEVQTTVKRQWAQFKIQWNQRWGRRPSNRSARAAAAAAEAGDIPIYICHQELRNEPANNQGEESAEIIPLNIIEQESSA

[3] = molecular target: T2, human calcitonin (a) receptor in BHK570 cells (Homo sapiens, UniProt P30988); test: ASSAY (II)a functional assay, human calcitonin receptor (CRE luciferase); type: cell-based
T2 construct: expressed in transfected cells
T2 sequence (P30988 25-474): T1 sequence (P30988 25-474)
How it was run: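 BHK CRE-luc cells, calcitonin (a) receptor ± RAMP-3 (amylin 3(a)); overnight seeding, 37° C/5% CO2. 3 h ligand exposure, DMEM/10% FBS/10 mM Hepes pH 7.4. LucLite 30 min RT; luminescence (SPC).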

[4] = bistrispropane buffer, pH 6.5, read-out: Solubility pH 6.5 Concentration
[5] = bistrispropane buffer, pH 7.5, read-out: Solubility pH 7.5 Concentration
[6] = bistrispropane buffer, pH 6.0, read-out: Solubility pH 6.0 Concentration
[7] = bistrispropane buffer, pH 7.0, read-out: Solubility pH 7.0 Concentration
[8] = bistrispropane buffer, pH 8.0, read-out: Solubility pH 8.0 Concentration
[9] = glycylglycine buffer, pH 3.0, read-out: Solubility pH 3.0 Concentration
[10] = glycylglycine buffer, pH 4.0, read-out: Solubility pH 4.0 Concentration
[11] = glycylglycine buffer, pH 5.0, read-out: Solubility pH 5.0 Concentration

Row | solubility at 18 h [1, 4] | solubility at 18 h [1, 5] | solubility at 18 h [1, 6] | solubility at 18 h [1, 7] | solubility at 18 h [1, 8] | solubility at 18 h [1, 9] | solubility at 18 h [1, 10] | solubility at 18 h [1, 11] | IC50 ([2]; read-out: hCTR bind IC50) | EC50 ([3]; read-out: hCTR funct. EC50) | SMILES | solubility at 18 h ([1]; pH 3.0, read-out: Solubility pH 3.0 Concentration) | solubility at 18 h ([1]; pH 4.0, read-out: Solubility pH 4.0 Concentration) | solubility at 18 h ([1]; pH 5.0, read-out: Solubility pH 5.0 Concentration) | solubility at 18 h ([1]; pH 6.0, read-out: Solubility pH 6.0 Concentration) | solubility at 18 h ([1]; pH 6.5, read-out: Solubility pH 6.5 Concentration) | solubility at 18 h ([1]; pH 7.0, read-out: Solubility pH 7.0 Concentration) | solubility at 18 h ([1]; pH 7.5, read-out: Solubility pH 7.5 Concentration) | solubility at 18 h ([1]; pH 8.0, read-out: Solubility pH 8.0 Concentration) | IC50 [2] | EC50 [3]
1 | ≥ 200 µM | ≥ 200 µM | ≥ 200 µM | ≥ 200 µM | ≥ 200 µM | ≥ 200 µM | ≥ 200 µM | ≥ 200 µM | 19.3 nM | 2.52 nM | CC[C@H](C)[C@H](NC(=O)[C@H](C)NC(=O)CNC(=O)[C@H](Cc1ccccc1)NC(=O)[C@H](CC(N)=O)NC(=O)[C@@H]1CCCN1C(=O)[C@H](CO)NC(=O)[C@H](CO)NC(=O)[C@H](Cc1c[nH]cn1)NC(=O)[C@H](CCCNC(=N)N)NC(=O)[C@H](CC(C)C)NC(=O)[C@H](Cc1ccccc1)NC(=O)[C@H](CC(N)=O)NC(=O)[C@H](C)NC(=O)[C@H](CC(C)C)NC(=O)[C@H](CCCNC(=N)N)NC(=O)[C@H](CCC(N)=O)NC(=O)[C@@H](NC(=O)[C@H](C)NC(=O)[C@@H]1CSSC[C@H](NC(=O)[C@H](CCCCN)NC(=O)CC[C@H](NC(=O)CCCCCCCCCCCCCCCCCCC(=O)O)C(=O)O)C(=O)N[C@@H](CC(N)=O)C(=O)N[C@@H]([C@@H](C)O)C(=O)N[C@@H](C)C(=O)N[C@@H]([C@@H](C)O)C(=O)N1)[C@@H](C)O)C(=O)N1CCC[C@H]1C(=O)N[C@@H](CO)C(=O)N[C@@H](CO)C(=O)N[C@H](C(=O)N[C@@H](CC(N)=O)C(=O)N[C@H](C(=O)NCC(=O)N[C@@H](CCCNC(=N)N)C(=O)N[C@@H](CC(N)=O)C(=O)N[C@H](C(=O)N[C@@H](Cc1ccc(O)cc1)C(N)=O)[C@@H](C)O)C(C)C)[C@@H](C)O [Example 39] ({C20 diacid-γGlu}-KCNTATCATQRLANFLRHSSPNFGAIPSSTNVGRNTY-NH2; disulfide 2-7) |  |  |  |  |  |  |  |  |  | 
2 | ≥ 200 µM | 142 µM (≈ 644 µg/mL) | ≥ 200 µM | ≥ 200 µM | 101 µM (≈ 458 µg/mL) | ≥ 200 µM | ≥ 200 µM | ≥ 200 µM | 15.3 nM | 3.12 nM | CC[C@H](C)[C@H](NC(=O)[C@H](C)NC(=O)CNC(=O)[C@H](Cc1ccccc1)NC(=O)[C@H](CC(N)=O)NC(=O)[C@@H]1CCCN1C(=O)[C@H](CO)NC(=O)[C@H](CO)NC(=O)[C@H](Cc1c[nH]cn1)NC(=O)[C@H](CCCNC(=N)N)NC(=O)[C@H](CC(C)C)NC(=O)[C@H](Cc1ccccc1)NC(=O)[C@H](CC(N)=O)NC(=O)[C@H](C)NC(=O)[C@H](CC(C)C)NC(=O)[C@H](CCCNC(=N)N)NC(=O)[C@H](CCC(N)=O)NC(=O)[C@@H](NC(=O)[C@H](C)NC(=O)[C@@H]1CSSC[C@H](NC(=O)[C@@H](N)CCCCNC(=O)COCCOCCNC(=O)CC[C@H](NC(=O)CCCCCCCCCCCCCCCCCCC(=O)O)C(=O)O)C(=O)N[C@@H](CC(N)=O)C(=O)N[C@@H]([C@@H](C)O)C(=O)N[C@@H](C)C(=O)N[C@@H]([C@@H](C)O)C(=O)N1)[C@@H](C)O)C(=O)N1CCC[C@H]1C(=O)N[C@@H](CO)C(=O)N[C@@H](CO)C(=O)N[C@H](C(=O)N1CCC[C@H]1C(=O)N[C@H](C(=O)NCC(=O)N[C@@H](CO)C(=O)N[C@@H](Cc1c[nH]cn1)C(=O)N[C@H](C(=O)N[C@@H](Cc1ccc(O)cc1)C(N)=O)[C@@H](C)O)C(C)C)[C@@H](C)O [Example 57] (H-K([AEEA-γGlu-C20 diacid])CNTATCATQRLANFLRHSSPNFGAIPSSTPVGSHTY-NH2; disulfide 2-7; N-terminus assumed) |  |  |  |  |  |  |  |  |  | 
3 | ≥ 200 µM | ≥ 200 µM | ≥ 200 µM | ≥ 200 µM | 189 µM (≈ 829 µg/mL) | ≥ 200 µM | ≥ 200 µM | ≥ 200 µM | 6.17 nM | 0.539 nM | CC[C@H](C)[C@H](NC(=O)[C@H](C)NC(=O)CNC(=O)[C@H](Cc1ccccc1)NC(=O)[C@H](CC(N)=O)NC(=O)[C@@H]1CCCN1C(=O)[C@H](CO)NC(=O)[C@H](CO)NC(=O)[C@H](Cc1c[nH]cn1)NC(=O)[C@H](CCCNC(=N)N)NC(=O)[C@H](CC(C)C)NC(=O)[C@H](Cc1ccccc1)NC(=O)[C@H](Cc1c[nH]cn1)NC(=O)[C@H](C)NC(=O)[C@H](CC(C)C)NC(=O)[C@H](CCCNC(=N)N)NC(=O)[C@H](CCC(N)=O)NC(=O)[C@@H](NC(=O)[C@H](C)NC(=O)[C@@H]1CSSC[C@H](NC(=O)[C@@H](N)CCCCNC(=O)CC[C@H](NC(=O)CCCCCCCCCCCCCCCCCCC(=O)O)C(=O)O)C(=O)N[C@@H](CC(N)=O)C(=O)N[C@@H]([C@@H](C)O)C(=O)N[C@@H](C)C(=O)N[C@@H]([C@@H](C)O)C(=O)N1)[C@@H](C)O)C(=O)N1CCC[C@H]1C(=O)N[C@@H](CO)C(=O)N[C@@H](CO)C(=O)N[C@H](C(=O)N1CCC[C@H]1C(=O)N[C@H](C(=O)NCC(=O)N[C@@H](CO)C(=O)N[C@@H](CC(N)=O)C(=O)N[C@H](C(=O)N[C@@H](Cc1ccc(O)cc1)C(N)=O)[C@@H](C)O)C(C)C)[C@@H](C)O [Example 62] (H-K([γGlu-C20 diacid])CNTATCATQRLAHFLRHSSPNFGAIPSSTPVGSNTY-NH2; disulfide 2-7; N-terminus assumed) |  |  |  |  |  |  |  |  |  | 
4 | ≥ 200 µM | ≥ 200 µM | ≥ 200 µM | ≥ 200 µM | ≥ 200 µM | ≥ 200 µM | ≥ 200 µM | ≥ 200 µM | 56 nM | 22.9 nM | CC[C@H](C)[C@H](NC(=O)[C@H](C)NC(=O)CNC(=O)[C@H](Cc1ccccc1)NC(=O)[C@H](CC(N)=O)NC(=O)[C@@H]1CCCN1C(=O)[C@H](CO)NC(=O)[C@H](CO)NC(=O)[C@H](Cc1c[nH]cn1)NC(=O)[C@H](CCCNC(=N)N)NC(=O)[C@H](CC(C)C)NC(=O)[C@H](Cc1ccccc1)NC(=O)[C@H](CCCNC(=N)N)NC(=O)[C@H](C)NC(=O)[C@H](CC(C)C)NC(=O)[C@H](CCCNC(=N)N)NC(=O)[C@H](CCC(N)=O)NC(=O)[C@@H](NC(=O)[C@H](C)NC(=O)[C@@H]1CSSC[C@H](NC(=O)[C@@H](N)CCCCNC(=O)COCCOCCNC(=O)CC[C@H](NC(=O)CCCCCCCCCCCCCCCCCCC(=O)O)C(=O)O)C(=O)N[C@@H](CC(N)=O)C(=O)N[C@@H]([C@@H](C)O)C(=O)N[C@@H](C)C(=O)N[C@@H]([C@@H](C)O)C(=O)N1)[C@@H](C)O)C(=O)N1CCC[C@H]1C(=O)N[C@@H](CO)C(=O)N[C@@H](CO)C(=O)N[C@H](C(=O)N1CCC[C@H]1C(=O)N[C@H](C(=O)NCC(=O)N[C@@H](CO)C(=O)N[C@@H](CC(N)=O)C(=O)N[C@H](C(=O)N[C@@H](Cc1ccc(O)cc1)C(N)=O)[C@@H](C)O)C(C)C)[C@@H](C)O [Example 64] (H-K([AEEA-γGlu-C20 diacid])CNTATCATQRLARFLRHSSPNFGAIPSSTPVGSNTY-NH2; disulfide 2-7; N-terminus assumed) |  |  |  |  |  |  |  |  |  | 
5 |  |  |  |  |  |  |  |  |  |  | CC[C@H](C)[C@H](NC(=O)[C@H](C)NC(=O)CNC(=O)[C@H](Cc1ccccc1)NC(=O)[C@H](CC(N)=O)NC(=O)[C@@H]1CCCN1C(=O)[C@H](CO)NC(=O)[C@H](CO)NC(=O)[C@H](Cc1c[nH]cn1)NC(=O)[C@H](CCCNC(=N)N)NC(=O)[C@H](CC(C)C)NC(=O)[C@H](Cc1ccccc1)NC(=O)[C@H](CCCCN)NC(=O)[C@H](C)NC(=O)[C@H](CC(C)C)NC(=O)[C@H](CCCNC(=N)N)NC(=O)[C@H](CCC(N)=O)NC(=O)[C@@H](NC(=O)[C@H](C)NC(=O)[C@@H]1CSSC[C@H](NC(=O)[C@@H](N)CCCCNC(=O)COCCOCCNC(=O)CC[C@H](NC(=O)CCCCCCCCCCCCCCCCCCC(=O)O)C(=O)O)C(=O)N[C@@H](CC(N)=O)C(=O)N[C@@H]([C@@H](C)O)C(=O)N[C@@H](C)C(=O)N[C@@H]([C@@H](C)O)C(=O)N1)[C@@H](C)O)C(=O)N1CCC[C@H]1C(=O)N[C@@H](CO)C(=O)N[C@@H](CO)C(=O)N[C@H](C(=O)N1CCC[C@H]1C(=O)N[C@H](C(=O)NCC(=O)N[C@@H](CO)C(=O)N[C@@H](CC(N)=O)C(=O)N[C@H](C(=O)N[C@@H](Cc1ccc(O)cc1)C(N)=O)[C@@H](C)O)C(C)C)[C@@H](C)O [Example 74] (H-K([AEEA-γGlu-C20 diacid])CNTATCATQRLAKFLRHSSPNFGAIPSSTPVGSNTY-NH2; disulfide 2-7; N-terminus assumed) | ≥ 200 µM | ≥ 200 µM | ≥ 200 µM | ≥ 200 µM | ≥ 200 µM | ≥ 200 µM | ≥ 200 µM | ≥ 200 µM | 79.9 nM | 37.5 nM
